{"source": "patent US20220354818A1", "about": "“METHODS FOR TREATING BRAIN INJURY OR COGNITIVE DYSFUNCTION BY PHARMACOLOGICAL ENHANCMENT OF M-TYPE POTASSIUM ION CURRENTS IN NEURONS” (Advanced Neuroresearch Therapeutics LLC, priority 2019, published 2022)", "key": {"neurons": {"test_system": "neurons", "assay": "Fluoro Jade B staining of neuronal cell death after CCCI", "format": "in vivo, mouse", "settings": "six days after CCCI; RTG 30 minutes post-TBI", "protocol": "Flouro Jade B (FJB) staining was performed to assay neuronal cell death histologically and detect the degree of neurodegeneration six days after CCCI. Staining was performed as previously described.\nSix days after CCCI, mice were euthanized via transcardial perfusion with PBS followed by 4% (w/v) paraformaldehyde (PFA). Brains were removed, post-fixed overnight in 4% PFA (Electron Microscopy Sciences), transferred into 30% (w/v) sucrose in PBS and kept at 4° C. for 3 days. […]\nIpsilateral cortical images (fluorescence images of FJB and counterstained DAPI) were taken by a Nikon Eclipse Ti with camera coolSNAP HQ^2 (confocal) microscope using a 20× objective (N.A. 0.75). Fluorescence excitation-emission for Fluoro Jade and DAPI were 470/40-500 and 350/50-460, respectively.\nCell count was obtained by nonbiased automatic quantification with ImageJ/FIJI (NIH, USA) particle analysis. […] After background subtraction and image threshold (1.05%), FIB positive cells were detected using the “analyze particles” (size: 20-100, circularity: 0.00-1.00) function of ImageJ. These parameters determined the pixel size and circularity of the acceptable ROIs and were used to identify cell bodies automatically."}, "mice subjected to rbTBI": {"test_system": "mice subjected to rbTBI", "assay": "Sleep-wake cycle analysis of EEG after rbTBI", "format": "in vivo, mouse", "settings": "first week post-rbTBI", "protocol": "To study the sleep-wake cycle, video/EEG records from the first 72 hour long record session (starting 2 days after the last injury) and the last 48 hour long record session (9 months after the last injury) were analyzed. To select one EEG channel from each animal/session for further analysis, we performed visual inspections of the raw local field potentials and their time-frequency decompositions (spectrograms) recorded from the three electrodes. EEG channels with signal saturation and background noise or artifacts were discarded. Then, the EEG channel with the highest percentage power at the 5-12 Hz frequency band was used to classify the sleep-wake cycle. Awake state (WK), slow wave sleep (SWS), rapid eye movement sleep REM), and transition/undetermined states (US) were classified based on two power spectral ratios, as described by Gervasoni et al., Global Forebrain Dynamics Predict Rat Behavioral States and Their Transitions, J Neurosci 24(49): 11137-11147 (2004). In brief, it first measures the relative power within fast (0.5-20/0.5-50 Hz) and slow (0.5-4.5/0.5-9 Hz) frequency bands and then generates a 2 dimensional (2D) state-space on which clusters are manually selected and associated with each state of the sleep-wake cycle."}, "[1]": {"test_system": "TAR DNA-binding protein 43 (TDP-43)", "assay": "TDP-43 immunoblotting and immunohistochemistry after rbTBI (CTE marker)", "format": "in vivo, mouse", "protocol": "Levels of TDP-43 were first analyzed by immunoblotting experiments performed as previously described. Cortical and hippocampal samples were collected when the mice were 26-28 months of age.\nComplementary to the immunoblot experiments, immunohistochemistry staining of TDP-43 was performed as previously described. Left hemisphere samples were removed and fixed overnight in 4% paraformaldehyde (Electron Microscopy Sciences). Subsequently, samples were transferred into 30% (w/v) sucrose in PBS and kept for 3 days at 4° C. before they were frozen in Tissue-Plus O.C.T. Compound (Fisher Scientific) using 2-methylbutane immersed in dry ice. Samples were stored at −80° C. until cross-sectioning.\n20 μm thick coronal sections of the prefrontal cortex (PFC) were mounted on Superfrost Plus microscope slides (Fisher Scientific) previously coated with gelatin (Sigma). […] Images were taken in the PFC layer II at 40× magnification using an iXon ultra EMCCD Andor camera attached to a Nikon Eclipse TE2000-U microscope, with a fixed exposition time of 200 ms, in the 16-bit readout mode, with 2 MHz speed, and a pre-amplifier gain of 3. The mean and maximum fluorescence signal was obtained by automatic quantification with ImageJ (National Institutes of Health, USA). […]\nSamples used in the immunoblotting and the immunohistochemistry experiments were from the EEG-monitored mice and from the above independent cohort. […]"}, "M-channels": {"test_system": "M-channels", "assay": "Voltage dependence of M-channels"}}, "note": "Entries after “also recorded” stand apart in the source; their conditions may differ."}
{"molecule": "CCOC(=O)Nc1ccc(NCc2ccc(F)cc2)cc1N", "note": "[RTG, 2-amino-4-(4-fluorobenzylamino)-1-ethoxycarbonylaminobenzene]", "values": [{"measurement": "Fluoro Jade B labeling of neurons (neuronal death)", "setting": "neurons", "value": "significantly higher FJB staining as compared to TBI+RTG cortical slices; also recorded: labeling of brain neurons by FJB was minimal"}, {"measurement": "percentage of time in awake state", "setting": "mice subjected to rbTBI", "value": "roughly equivalent to that experienced by the Sham group"}, {"measurement": "TDP-43 expression in the cerebral cortex", "setting": "[1]; 2 years after TBIs, immunoblot and immunofluorescence", "value": "reduced TDP-43 as compared to the Blast cohort"}, {"measurement": "phosphorylation levels of TDP-43", "setting": "[1]; cerebral cortex", "value": "Neither TBI, nor RTG treatment, changed the phosphorylation levels of TDP-43"}, {"measurement": "voltage dependence of M-channels", "setting": "M-channels", "value": "shifting the voltage dependence of M-channels towards more negative potentials"}]}
